# Results from patent US6316503A, “LXR modulators” (Tularik Inc., priority 2000, dated 2001).
# What was measured:
# LXRα [1] = target: T1, LXRα (Homo sapiens, UniProt Q13133); test: cell-based GAL4-LXRα luciferase reporter assay; conditions: 293 cells with GAL4 DNA-binding domain fused to LXRα ligand-binding domain, UAS luciferase reporter; concentration producing 50% of maximal luciferase activity
# T1 construct: expressed in transfected cells; host or cells: 293 cells
# T1 sequence (Q13133 209-447 limits assumed): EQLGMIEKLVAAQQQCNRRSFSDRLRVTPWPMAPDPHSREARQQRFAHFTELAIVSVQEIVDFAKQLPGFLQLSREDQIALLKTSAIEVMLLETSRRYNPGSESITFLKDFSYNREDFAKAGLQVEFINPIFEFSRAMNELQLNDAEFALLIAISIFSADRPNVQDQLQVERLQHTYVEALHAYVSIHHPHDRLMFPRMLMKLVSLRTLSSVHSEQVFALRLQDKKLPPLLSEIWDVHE
# Description: (§1) LXRα agonist activity can be characterized in a cell-based assay or a peptide-sensor assay. The same assays can be utilized to characterize LXRα antagonist activity, by evaluating the ability of a compound to block the effects of an LXRα agonist, such as 24,25-epoxycholesterol.
# Briefly, for the cell-based assay, a DNA-binding domain of the nonreceptor transcription factor GAL4 was fused to the putative ligand-binding domain of LXRα. The resultant construct was introduced into 293 cells, together with UAS-containing luciferase reporter construct. The transfected cells were then treated with chemical libraries and luciferase activity was measured. Individual compounds were evaluated relative to a control (no addition of compound) and the EC50 was determined as the concentration necessary to produce 50% of the maximal luciferase activity.
# LXRα [2] = target: T2, LXRα (Homo sapiens, UniProt Q13133); test: peptide sensor LXR assay (in vitro); type: biochemical
# T2 sequence (Q13133 1-447): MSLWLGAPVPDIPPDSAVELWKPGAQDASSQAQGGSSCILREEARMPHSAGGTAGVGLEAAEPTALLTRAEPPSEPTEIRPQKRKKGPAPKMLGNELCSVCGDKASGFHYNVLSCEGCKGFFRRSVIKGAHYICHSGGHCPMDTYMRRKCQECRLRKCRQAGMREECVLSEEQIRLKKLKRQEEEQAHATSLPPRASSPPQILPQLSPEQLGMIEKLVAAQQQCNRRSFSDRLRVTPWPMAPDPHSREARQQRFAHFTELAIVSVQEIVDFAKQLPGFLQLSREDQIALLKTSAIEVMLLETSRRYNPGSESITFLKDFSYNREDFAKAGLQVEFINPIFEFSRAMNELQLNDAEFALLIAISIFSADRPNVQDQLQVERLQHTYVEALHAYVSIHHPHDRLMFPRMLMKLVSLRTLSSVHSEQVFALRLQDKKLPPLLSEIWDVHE
# Procedure: as §1
# The peptide sensor LXR assay is an in vitro assay and was conducted as generally described in co-pending applications Ser. Nos. 08/975,614 (filed Nov. 21, 1997) and 09/163,713 (filed Sep. 30, 1998).
structure (smiles),measurement,setting,value
O=S(=O)(Nc1ccc(C(O)(C(F)(F)F)C(F)(F)F)cc1)c1ccccc1 [Compound 2],EC50,LXRα [1],< 2000 nM
same,EC50,LXRα [2],< 2000 nM
